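Growth conditions: 96-well plates. Treatment: test compound, 48 hours, 5 concentrations. Analysis: linear interpolation between bracketing concentrations; unreached endpoints set to highest concentration. The concentration for 50% growth inhibition is given as GI50.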 Activity calls are given as the source filed them. Rule as the data show it: active = GI50 up to about 1.1 µM and inactive = higher.
Key:
Assay in all cases: NCI-60 cell line screen, 48 h
[1] = test system: RXF 393
[2] = test system: Malme-3M
[3] = test system: COLO 205
[4] = test system: HCC 2998
[5] = test system: LOX IMVI
[6] = test system: SF-268
[7] = test system: OVCAR-8
[8] = test system: HT-29
[9] = test system: RPMI-8226
[10] = test system: IGROV-1
[11] = test system: SNB-19
[12] = test system: CCRF-CEM
[13] = test system: OVCAR-3
[14] = test system: SN12C
[15] = test system: SK-MEL-2
[16] = test system: TK-10
[17] = test system: HL-60
[18] = test system: K562
[19] = test system: U-251
[20] = test system: MCF7

SMILES | GI50 [1] | GI50 [2] | GI50 [3] | GI50 [4] | GI50 [5] | GI50 [6] | GI50 [7] | GI50 [8] | GI50 [9] | GI50 [10] | GI50 [11] | GI50 [12] | GI50 [13] | GI50 [14] | GI50 [15] | GI50 [16] | GI50 [17] | GI50 [18] | GI50 [19] | GI50 [20]
CCOC(=O)C(O)(NC(=O)c1ccc(F)cc1)C(F)(F)F (stereo not given) | > 100 µM (inactive) | > 100 µM (inactive) | > 100 µM (inactive) | > 100 µM (inactive) | > 100 µM (inactive) | > 100 µM (inactive) | > 100 µM (inactive) | > 100 µM (inactive) | > 100 µM (inactive) | 57 µM (inactive) | > 100 µM (inactive) | > 100 µM (inactive) | > 100 µM (inactive) | > 100 µM (inactive) | > 100 µM (inactive) | > 100 µM (inactive) | > 100 µM (inactive) | > 100 µM (inactive) | > 100 µM (inactive) | > 100 µM (inactive)
COC1C(O)CC(OC2CC(Oc3cc4cc5c(c(O)c4c(O)c3C)C(=O)[C@@H](OC3CC(OC4CC(OC6CC(C)(O)C(OC(C)=O)C(C)O6)C(O)C(C)O4)C(O)C(C)O3)[C@H]([C@H](OC)C(=O)[C@@H](O)[C@@H](C)O)C5)OC(C)C2OC(C)=O)OC1C (stereo not given in full) [CHROMOMYCIN] | 0.00311 µM (active) | 0.00328 µM (active) | < 0.01 µM (active) | < 0.01 µM (active) | 0.00348 µM (active) | 0.00357 µM (active) | < 0.01 µM (active) | < 0.01 µM (active) | < 0.01 µM (active) | 0.0101 µM (active) | 0.00424 µM (active) | < 0.01 µM (active) | < 0.01 µM (active) | 0.0101 µM (active) | 0.00361 µM (active) | 0.000119 µM (active) | 0.0127 µM (active) | 0.00566 µM (active) | 0.00344 µM (active) | 0.00312 µM (active)
